Where a name gives a salt, the structure may show the parent alone.
What follows are compounds tested on MCF-7 cells (assay: Growth inhibition of MCF-7 human breast cancer cells, 72 h culture (Test 1)). Settings: MCF7, 37° C., read-out: 50% Growth inhibition concentrations (GI50).
Type: cell-based
Method: Used in the test were MCF-7 cells which were established from human breast cancer and were cultured routinely under the conditions of 37° C. and 5% CO2, in RPMI 1640 medium supplemented with 10% fetal calf serum, HEPES buffer solution (25 mM) and kanamycin (0.1 mg/ml). Single cell suspension was prepared by adding trypsin/EDTA to the medium so as to be adjusted to 4.0×10^4 cells/ml. Test compounds were dissolved or suspended in DMSO or RPMI 1640 medium at a concentration of 1.0×10^-4 -1.0×10^-9 M.
The cell suspension and the sample solution or suspension were filled in a 96-wells microplate at a rate of 0.1 ml of the former and 0.1 ml of the latter per well and cultured at 37° C. for 72 hours in 5% CO2.
50% Growth inhibition concentrations (GI50 μM) were calculated from growth inhibitions at various sample concentrations.

Row | SMILES | GI50 [µM]
1 | C[C@@H]1OCCN(c2nc(N3CCOCC3)nc(-n3cnc4ccccc43)n2)[C@@H]1C (relative stereo) [compound 7, 2-(benzimidazol-1-yl)-4-(cis-2,3-dimethylmorpholino)-6-morpholino-1,3,5-triazine] | 1
2 | C[C@@H]1CN(c2nc(N3CCO[C@@H](C)[C@H]3C)nc(-n3cnc4ccccc43)n2)C[C@H](C)O1 (relative stereo) [compound 8, 2-(benzimidazol-1-yl)-4-(cis-2,3-dimethylmorpholino)-6-(cis-2,6-dimethylmorpholino)-1,3,5-triazine] | 3.9
3 | C[C@H]1CN(c2nc(N3CCOCC3)nc(-n3cnc4ccccc43)n2)C[C@H](C)O1 (relative stereo) [compound 14, 2-(benzimidazol-1-yl)-4-(trans-2,6-dimethylmorpholino)-6-morpholino-1,3,5-triazine] | 2.3
4 | C[C@H]1CN(c2cc(N3CCOCC3)nc(-n3cnc4ccccc43)n2)C[C@H](C)O1 (relative stereo) [compound 20, 2-(benzimidazol-1-yl)-4-(trans-2,6-dimethylmorpholino)-6-morpholinopyrimidine] | 2.8
5 | C[C@@H]1OCCN(c2cc(N3CCOCC3)nc(-n3cnc4ccccc43)n2)[C@@H]1C (relative stereo) [compound 21, 2-(benzimidazol-1-yl)-4-(cis-2,3-dimethylmorpholino)-6-morpholinopyrimidine] | 1.1
6 | c1ccc2c(c1)ncn2-c1nc(N2CCOCC2)nc(N2CCOCC2)n1 [compound 2, 2-(benzimidazol-1-yl)-4,6-dimorpholino-1,3,5-triazine] | 3.3
7 | Cc1nc2ccccc2n1-c1nc(N2CCOCC2)nc(N2CCOCC2)n1 [compound 3, 2-(2-methylbenzimidazol-1-yl)-4,6-dimorpholino-1,3,5-triazine] | 3.7
8 | N#Cc1nc(N2CCOCC2)nc(-n2cnc3ccccc32)n1 [compound 4, 2-(benzimidazol-1-yl)-4-cyano-6-morpholino-1,3,5-triazine] | 3.8
9 | FC(F)(F)C1CN(c2nc(N3CCOCC3)nc(-n3cnc4ccccc43)n2)CCO1 (stereo not shown) [compound 6, 2-(benzimidazol-1-yl)-4-morpholino-6-(2-trifluoro-methylmorpholino)-1,3,5-triazine] | 7.2
10 | CCC1CN(c2nc(N3CCOCC3)nc(-n3cnc4ccccc43)n2)CCO1 (stereo not shown) [compound 12, 2-(benzimidazol-1-yl)-4-(2-ethylmorpholino)-6-morpholino-1,3,5-triazine] | 3.9
11 | CC1CN(c2nc(N3CCOCC3)nc(-n3cnc4ccccc43)n2)CCO1 (stereo not shown) [compound 16, 2-(benzimidazol-1-yl)-4-(2-methylmorpholino)-6-morpholino-1,3,5-triazine] | 4.8
12 | CC(C)(C)OC(=O)NCC1CN(c2nc(N3CCOCC3)nc(-n3cnc4ccccc43)n2)CCO1 (stereo not shown) [compound 18, 2-(benzimidazol-1-yl)-4-[2-(tert-butoxycarbonylamino-methyl)morpholino]-6-morpholino-1,3,5-triazine] | 6.3
13 | c1ccc2c(c1)ncn2-c1nc(N2CCOCC2)cc(N2CCSCC2)n1 [compound 23, 2-(benzimidazol-1-yl)-4-morpholino-6-thiomorpholino-pyrimidine] | 3.9
14 | CC(C)(C)OC(=O)NCC1CN(c2cc(N3CCOCC3)nc(-n3cnc4ccccc43)n2)CCO1 (stereo not shown) [compound 25, 2-(benzimidazol-1-yl)-4-[2-(tert-butoxycarbonylamino-methyl)morpholino]-6-morpholinopyrimidine] | 4
15 | Cc1cc2ncn(-c3nc(N4CCOCC4)nc(N4CCOCC4)n3)c2cc1C [compound 30, 2-(5,6-dimethylbenzimidazol-1-yl)-4,6-dimorpholino-1,3,5-triazine] | 3.7
16 | CN(Cc1ccccc1)CC1CN(c2nc(N3CCOCC3)nc(-n3cnc4ccccc43)n2)CCO1 (stereo not shown) [compound 31, 2-(benzimidazol-1-yl)-4-[2-(N-benzyl-N-methylamino-methyl)morpholino]-6-morpholino-1,3,5-triazine] | 6.8

Row | SMILES | GI50 [µM]
17 | FCC1CN(c2nc(N3CCOCC3)nc(-n3cnc4ccccc43)n2)CCO1 (stereo not shown) [compound 32, 2-(benzimidazol-1-yl)-4-(2-fluoromethylmorpholino)-6-morpholino-1,3,5-triazine] | 3.9
18 | Cc1nc2ccccc2n1-c1nc(N2CCOCC2)nc(N2C[C@@H](C)O[C@@H](C)C2)n1 [compound 33, 4-(cis-2,6-dimethylmorpholino)-2-(2-methylbenzimidazol-1-yl)-6-morpholino-1,3,5-triazine] | 3.2
19 | OCC1CN(c2nc(N3CCOCC3)nc(-n3cnc4ccccc43)n2)CCO1 (stereo not shown) [compound 34, 2-(benzimidazol-1-yl)-4-(2-hydroxymethylmorpholino)-6-morpholino-1,3,5-triazine] | 5.8
20 | OC1CCCN(c2nc(N3CCOCC3)nc(-n3cnc4ccccc43)n2)C1 (stereo not shown) [compound 36, 2-(benzimidazol-1-yl)-4-(3-hydroxypiperidino)-6-morpholino-1,3,5-triazine] | 3.9
21 | CC(=O)OC1CCN(c2nc(N3CCOCC3)nc(-n3cnc4ccccc43)n2)CC1 [compound 38, 2-(4-acetoxypiperidino)-4-(benzimidazol-1-yl)-6-morpholino-1,3,5-triazine] | 6.5
22 | OCCN(CCO)c1nc(N2CCOCC2)nc(-n2cnc3ccccc32)n1 [compound 42, 2-(benzimidazol-1-yl)-4-[N,N-di(2-hydroxyethyl)amino]-6-morpholino-1,3,5-triazine] | 4.6
23 | c1ccc2c(c1)ncn2-c1nc(N2CCOCC2)cc(N2CCOCC2)n1 [compound 43, 2-(benzimidazol-1-yl)-4,6-dimorpholinopyrimidine] | 4.3
24 | c1ccc2c(c1)ncn2-c1cc(N2CCOCC2)nc(-n2cnc3ccccc32)n1 [compound 44, 2,4-di(benzimidazol-1-yl)-6-morpholinopyrimidine] | 3.1
25 | c1ccc2c(c1)ncn2-c1cc(N2CCOCC2)nc(N2CCOCC2)n1 [compound 45, 4-(benzimidazol-1-yl)-2,6-dimorpholinopyrimidine] | 4.6
26 | c1ccc2c(c1)ncn2-c1cc(-n2cnc3ccccc32)nc(N2CCOCC2)n1 [compound 46, 4,6-di(benzimidazol-1-yl)-2-morpholinopyrimidine] | 4.3
27 | Brc1c(N2CCOCC2)nc(-n2cnc3ccccc32)nc1N1CCOCC1 [compound 47, 2-(benzimidazol-1-yl)-5-bromo-4,6-dimorpholinopyrimidine] | 3.6
28 | c1ccc2c(c1)ncn2-c1nc(N2CCOCC2)nc(N2CCC3(CC2)OCCO3)n1 [compound 48, 2-(benzimidazol-1-yl)-4-[1,4-dioxa-8-azaspiro[4,5]decan-8-yl)-6-morpholino-1,3,5-triazine] | 5
29 | CCN(CCN1CCOCC1)c1nc(N2CCOCC2)nc(-n2cnc3ccccc32)n1 [compound 49, 2-(benzimidazol-1-yl)-4-(N-ethyl-N-2-morpholinoethyl)amino-6-morpholino-1,3,5-triazine] | 5
30 | NCCCCC1CCCN(c2nc(N3CCOCC3)nc(-n3cnc4ccccc43)n2)C1 (stereo not shown) [compound 53, hydrochloride of 2-[3-(4-aminobutyl)piperidino]-4-(benzimidazol-1-yl)-6-morpholino-1,3,5-triazine] | 5.2
31 | CN(C)c1nc(N(C)C)nc(N(C)CO)n1 [compound C, hydroxymethylpentamethylmelamine, reference compound] | > 50

— US6251900A, “Heterocyclic compounds and antitumor agent containing the same as active ingredient” (Zenyaku Kogyo Kabushiki Kaisha, priority 1997, dated 2001)
